Source: PMC7216583 (Parasites & Vectors, 2020)
Read-outs that look alike come from different tables or passages of the source.

Tests used:
[1] = tested on: Toxoplasma gondii RH-2F tachyzoites; experiment: microbe, parasite or virus in culture; details: 72 h
HER2 = tested on: HER2; parameters: method as in library vendor description; details: ref library vendor description; cited from earlier work
HER1 = tested on: HER1; parameters: method as in library vendor description; details: ref library vendor description; cited from earlier work
DNA methyltransferase = molecular target: DNA methyltransferase; parameters: method as in vendor brief description; details: ref vendor brief description; cited from earlier work
Akt1 = tested on: Akt1; parameters: method as in vendor brief description; details: ref vendor brief description; cited from earlier work
Akt3 = tested on: Akt3; parameters: method as in vendor brief description; details: ref vendor brief description; cited from earlier work
FAAH [2] = tested on: FAAH; parameters: method as in vendor brief description; details: human; ref vendor brief description; cited from earlier work
FAAH [3] = tested on: FAAH; parameters: method as in vendor brief description; details: rat; ref vendor brief description; cited from earlier work
CHO-mSGLT2 = tested on: CHO-mSGLT2; parameters: method as in S-inhibitor catalog; details: vendor brief description; ref S-inhibitor catalog; cited from earlier work
CHO-hSGLT2 = tested on: CHO-hSGLT2; parameters: method as in S-inhibitor catalog; details: vendor brief description; ref S-inhibitor catalog; cited from earlier work
CHO-rSGLT2 = tested on: CHO-rSGLT2; parameters: method as in S-inhibitor catalog; details: vendor brief description; ref S-inhibitor catalog; cited from earlier work
B-RafV600E = tested on: B-RafV600E; parameters: method as in vendor brief description; details: ref vendor brief description; cited from earlier work
B-Raf = tested on: B-Raf; parameters: method as in vendor brief description; details: ref vendor brief description; cited from earlier work
c-Raf = tested on: c-Raf; parameters: method as in vendor brief description; details: ref vendor brief description; cited from earlier work
integrase (IN) = molecular target: integrase (IN); parameters: method as in S-inhibitor catalog; details: vendor brief description; ref S-inhibitor catalog; cited from earlier work
INR263K = tested on: INR263K; parameters: method as in S-inhibitor catalog; details: vendor brief description; ref S-inhibitor catalog; cited from earlier work
mGlu5 = tested on: mGlu5; parameters: method as in S-inhibitor catalog; details: vendor brief description; ref S-inhibitor catalog; read-out: EC50, mGlu5 allosteric modulator; cited from earlier work
GSK3 = tested on: GSK3; parameters: method as in vendor brief description; details: ref vendor brief description; cited from earlier work
PKCθ = molecular target: PKCθ; parameters: method as in S-inhibitor catalog; details: vendor brief description; ref S-inhibitor catalog; cited from earlier work
FPTase (H-ras) = molecular target: FPTase (H-ras); parameters: method as in S-inhibitor catalog; details: vendor brief description; ref S-inhibitor catalog; cited from earlier work
FPTase (N-ras) = molecular target: FPTase (N-ras); parameters: method as in S-inhibitor catalog; details: vendor brief description; ref S-inhibitor catalog; cited from earlier work
FPTase (K-ras-4B) = molecular target: FPTase (K-ras-4B); parameters: method as in S-inhibitor catalog; details: vendor brief description; ref S-inhibitor catalog; cited from earlier work
in vitro = details: human, Host viability (%) mean
HDAC2 = tested on: HDAC2; parameters: method as in S-inhibitor catalog; details: vendor brief description; ref S-inhibitor catalog; cited from earlier work
NAMPT = details: read-out: IC50, NAMPT; vendor brief description; ref S-inhibitor catalog; cited from earlier work
[4] = read-out: Parasite inhibition (%) mean, preliminary screen of compound library, mean

For `Cc1c(NC(=O)OC[C@@H]2COCCN2)cn2ncnc(Nc3ccc4c(cnn4Cc4cccc(F)c4)c3)c12` [BMS-599626 (AC480)], the inhibition of growth at 5 µM ([1]; read-out: Parasite inhibition (%) mean, preliminary screen, mean) is given as 39.6%, the IC50 (HER2) is given as 30 nM and the IC50 (HER1) is given as 20 nM.
For `O=C(O)[C@H](Cc1c[nH]c2ccccc12)N1C(=O)c2ccccc2C1=O` [RG108], the IC50 (DNA methyltransferase) is given as 115 nM and the inhibition of growth at 5 µM [1, 4] is given as 2.5%.
In the case of `CC(C)NC[C@@H](C(=O)N1CCN(c2ncnc3c2[C@H](C)C[C@H]3O)CC1)c1ccc(Cl)cc1` [GDC-0068], the inhibition of growth at 5 µM [1, 4] is listed as 35.4%, the IC50 (Akt1) is listed as […] and the IC50 (Akt3) is listed as […].
For `O=C(Nc1ccccc1)N1CCN(c2nc(-c3ccccc3)ns2)CC1` [JNJ 1661010], the inhibition of growth at 5 µM [1, 4] is listed as 10.5%, the IC50 (FAAH [2]) is listed as 12 nM and the IC50 (FAAH [3]) is listed as 10 nM.
For `Cc1ccc([C@@H]2O[C@H](CO)[C@@H](O)[C@H](O)[C@H]2O)cc1Cc1ccc(-c2ccc(F)cc2)s1` [Canagliflozin], the inhibition of growth at 5 µM [1, 4] is listed as 0.5%, the IC50 (CHO-mSGLT2) is listed as 2 nM and the IC50 (CHO-hSGLT2) is listed as 4.4 nM. For the same compound, the IC50 (CHO-rSGLT2) was 3.7 nM.
For `CC(C)(C)c1nc(-c2cccc(NS(=O)(=O)c3c(F)cccc3F)c2F)c(-c2ccnc(N)n2)s1` [Dabrafenib (GSK2118436)], the inhibition of growth at 5 µM [1, 4] is given as 0.8%, the IC50 (B-RafV600E) is given as […] and the IC50 (B-Raf) is given as […]. The IC50 (c-Raf) was 5 nM.
In the case of `CCN1C[C@@H](C)n2c(c(O)c3c(=O)n(Cc4ccc(F)c(Cl)c4)nc(C(=O)NC)c32)C1=O` [MK-2048], the inhibition of growth at 5 µM [1, 4] is given as 1%, the IC50 (integrase (IN)) is given as 2.6 nM and the IC50 (INR263K) is given as 1.5 nM.
For `CCCCOc1ccc(C(=O)Nc2ccc(F)cc2F)cc1` [VU 0357121], the inhibition of growth at 5 µM [1, 4] is listed as 0.1% and the EC50 (mGlu5) is listed as 33 nM.
In the case of `O=c1sn(-c2cccc3ccccc23)c(=O)n1Cc1ccccc1` [Tideglusib], the IC50 (GSK3) is listed as […] and the inhibition of growth at 5 µM [1, 4] is listed as 52.8%.
For `CN1CCN(c2nc(C3=C(c4c[nH]c5ccccc45)C(=O)NC3=O)c3ccccc3n2)CC1` [Sotrastaurin (AEB071)], the inhibition of growth at 5 µM [1, 4] is listed as 40.4% and the Ki (PKCθ) is listed as 0.22 nM.
For `NC(=O)N1CCC(CC(=O)N2CCC([C@H]3c4ncc(Br)cc4CCc4cc(Cl)cc(Br)c43)CC2)CC1` [Lonafarnib (SCH66336)], the inhibition of growth at 5 µM [1, 4] is listed as 0.4%, the IC50 (FPTase (H-ras)) is listed as 1.9 nM and the IC50 (FPTase (N-ras)) is listed as 2.8 nM. The IC50 (FPTase (K-ras-4B)) was 5.2 nM.
In the case of `COc1ccc(-c2nc(N3CCOCC3)c3sc(CN(C)c4ncc(C(=O)NO)cn4)cc3n2)cn1` [PI3K/HDAC Inhibitor I], the inhibition of growth at 5 µM [1, 4] is given as 78.4%, the viability at 72 h (in vitro) is given as 72.1% and the IC50 (HDAC2) is given as 5 nM.
For `O=C(/C=C/c1cccnc1)NCCCCC1CCN(C(=O)c2ccccc2)CC1` [APO866 (FK866)], the inhibition of growth at 5 µM [1, 4] is given as 10.4% and the IC50 (NAMPT) is given as […].
